In one series the test system is recombinant NL4-3 virus. Description: HIV cell culture assay (antiviral activity, luciferase readout in infected MT-2 cells). The conditions noted are these: Human immunodeficiency virus 1, NL43, MT2. The format is cell-based. As to the method:
HIV cell culture assay—MT-2 cells, 293T cells and the proviral DNA clone of NL4-3 virus were obtained from the NIH AIDS Research and Reference Reagent Program. MT-2 cells were propagated in RPMI 1640 media supplemented with 10% heat inactivated fetal bovine serum (FBS), 100 μg/ml penicillin G and up to 100 units/mL streptomycin. The 293T cells were propagated in DMEM media supplemented with 10% heat inactivated FBS, 100 μg/mL penicillin G and 100 μg/mL streptomycin. A recombinant NL4-3 proviral clone, in which a section of the nef gene was replaced with the Renilla luciferase gene, was used to make the reference virus used in these studies. The recombinant virus was prepared through transfection of the recombinant NL4-3 proviral clone into 293T cells using Transit-293 Transfection Reagent from Mirus Bio LLC (Madison, WI). Supernatant was harvested after 2-3 days and the amount of virus present was titered in MT-2 cells using luciferase enzyme activity as a marker by measuring luciferase enzyme activity. Luciferase was quantitated using the EnduRen Live Cell Substrate from Promega (Madison, WI). Antiviral activities of compounds toward the recombinant virus were quantified by measuring luciferase activity in MT-2 cells infected for 4-5 days with the recombinant virus in the presence of serial dilutions of the compound.
The 50% effective concentration (EC50) was calculated by using the exponential form of the median effect equation where (Fa)=1/[1+(ED50/drug conc.)m] (Johnson VA, Byington RT. Infectivity Assay. In Techniques in HIV Research. ed. Aldovini A, Walker BD. 71-76. New York: Stockton Press.1990). Curve fitting and analysis were performed with ActivityBase XE Runner software version 9.1.0.4 using model 203 (ID Business Solutions, LTD, Guildford, UK).

Series [1] can be described thus: Compound cytotoxicity, XTT-based colorimetric assay. The class given is cell-based. As to conditions: human; uninfected MT2 cells, day 4, XTT assay. As to the method:
Compound cytotoxicity and the corresponding CC50 values were determined using the same protocol as described in the antiviral assay except that uninfected cells were used. Cytotoxicity was assessed on day 4 in uninfected MT2 cells by using an XTT (2,3-bis[2-Methoxy-4-nitro-5-sulfophenyl]-2H-tetrazolium-5-carboxyanilide inner salt)-based colorimetric assay (Sigma-Aldrich, St Louis, Mo).
Background: Tetrazolium dyes change colour on reduction, which living cells bring about.

The values below come from patent publication US20230355626A1, “INHIBITORS OF HUMAN IMMUNODEFICIENCY VIRUS REPLICATION” (VIIV HEALTHCARE UK (NO.5) LIMITED, priority 2020, published 2023).

In general, pEC50 refers to −log10 of the EC50, conventionally taken in molar units. For orientation: CC50 means the concentration at which the toxic effect on the cells reaches its halfway point. Read a high CC50 as better tolerance by the cells.

pEC50: −log10 of the molar value.

On to `Cn1nc(NS(C)(=O)=O)c2c(Cl)ccc(-n3c([C@H](Cc4cc(F)cc(F)c4)NC(=O)Cn4nc(C(F)F)c5c4C(F)(F)[C@@H]4C[C@H]54)nc4nc(OCCC(C)(C)c5ccccc5)ccc4c3=O)c21` (atropisomer, axis not shown; (P)) [Example 5, N-((S)-1-((3P)-3-(4-chloro-1-methyl-3-(methylsulfonamido)-1H-indazol-7-yl)-7-(3-methyl-3-phenylbutoxy)-4-oxo-3,4-dihydropyrido[2,3-d]pyrimidin-2-yl)-2-(3,5-difluorophenyl)ethyl)-2-((3bS,4aR)-3-(difluoromethyl)-5,5-difluoro-3b,4,4a,5-tetrahydro-1H-cyclopropa[3,4]cyclopenta[1,2-c]pyrazol-1-yl)acetamide], for which, in the series with recombinant NL4-3 virus, the pEC50 was 9.37. Besides, in series [1], the CC50 at 4 day is > 100 nM.

As for `Cc1cc(C)nc(COc2ccc3c(=O)n(-c4ccc(Cl)c5c(NS(C)(=O)=O)nn(C)c45)c([C@H](Cc4cc(F)cc(F)c4)NC(=O)Cn4nc(C(F)F)c5c4C(F)(F)[C@@H]4C[C@H]54)nc3n2)n1` (atropisomer, axis not shown; (P)) [Example 6, N-((S)-1-((3P,3P)-3-(4-chloro-1-methyl-3-(methylsulfonamido)-1H-indazol-7-yl)-7-((4,6-dimethylpyrimidin-2-yl)methoxy)-4-oxo-3,4-dihydropyrido[2,3-d]pyrimidin-2-yl)-2-(3,5-difluorophenyl)ethyl)-2-((3bS,4aR)-3-(difluoromethyl)-5,5-difluoro-3b,4,4a,5-tetrahydro-1H-cyclopropa[3,4]cyclopenta[1,2-c]pyrazol-1-yl)acetamide], the pEC50 in the series with recombinant NL4-3 virus is 10.44. Further, in series [1], the CC50 at 4 day is > 500 nM.

`Cc1ccnc(COc2ccc3c(=O)n(-c4ccc(Cl)c5c(NS(C)(=O)=O)nn(C)c45)c([C@H](Cc4cc(F)cc(F)c4)NC(=O)Cn4nc(C(F)F)c5c4C(F)(F)[C@@H]4C[C@H]54)nc3n2)n1` (atropisomer, axis not shown; (P)) [Example 7, N-((S)-1-((3P,3P)-3-(4-chloro-1-methyl-3-(methylsulfonamido)-1H-indazol-7-yl)-7-((4-methylpyrimidin-2-yl)methoxy)-4-oxo-3,4-dihydropyrido[2,3-d]pyrimidin-2-yl)-2-(3,5-difluorophenyl)ethyl)-2-((3bS,4aR)-3-(difluoromethyl)-5,5-difluoro-3b,4,4a,5-tetrahydro-1H-cyclopropa[3,4]cyclopenta[1,2-c]pyrazol-1-yl)acetamide]: in the series on recombinant NL4-3 virus, the negative-log EC50 (pEC50) was 10.23. The CC50 at 4 day in series [1] was > 500 nM.

In the case of `Cc1cnc(COc2ccc3c(=O)n(-c4ccc(Cl)c5c(NS(C)(=O)=O)nn(C)c45)c([C@H](Cc4cc(F)cc(F)c4)NC(=O)Cn4nc(C(F)F)c5c4C(F)(F)[C@@H]4C[C@H]54)nc3n2)nc1` (atropisomer, axis not shown; (P)) [Example 8, N-((S)-1-((3P,3P)-3-(4-chloro-1-methyl-3-(methylsulfonamido)-1H-indazol-7-yl)-7-((5-methylpyrimidin-2-yl)methoxy)-4-oxo-3,4-dihydropyrido[2,3-d]pyrimidin-2-yl)-2-(3,5-difluorophenyl)ethyl)-2-((3bS,4aR)-3-(difluoromethyl)-5,5-difluoro-3b,4,4a,5-tetrahydro-1H-cyclopropa[3,4]cyclopenta[1,2-c]pyrazol-1-yl)acetamide], the pEC50 with recombinant NL4-3 virus was 10.31. For the same compound, the CC50 at 4 day in series [1] is > 100 nM.

For the compound `CN(CCOc1ccc2c(=O)n(-c3ccc(Cl)c4c(NS(C)(=O)=O)nn(C)c34)c([C@H](Cc3cc(F)cc(F)c3)NC(=O)Cn3nc(C(F)F)c4c3C(F)(F)[C@@H]3C[C@H]43)nc2n1)CC(F)(F)F` (atropisomer, axis not shown; (P)) [Example 9, N-((S)-1-((3P)-3-(4-chloro-1-methyl-3-(methylsulfonamido)-1H-indazol-7-yl)-7-(2-(methyl(2,2,2-trifluoroethyl)amino)ethoxy)-4-oxo-3,4-dihydropyrido[2,3-d]pyrimidin-2-yl)-2-(3,5-difluorophenyl)ethyl)-2-((3bS,4aR)-3-(difluoromethyl)-5,5-difluoro-3b,4,4a,5-tetrahydro-1H-cyclopropa[3,4]cyclopenta[1,2-c]pyrazol-1-yl)acetamide], in the series with recombinant NL4-3 virus, the pEC50 is 10.74. Further, the CC50 at 4 day in series [1] is > 100 nM.

Take `CN(CCOc1ccc2c(=O)n(-c3ccc(Cl)c4c(NS(C)(=O)=O)nn(C)c34)c([C@H](Cc3cc(F)cc(F)c3)NC(=O)Cn3nc(C(F)F)c4c3C(F)(F)[C@@H]3C[C@H]43)nc2n1)S(C)(=O)=O` (atropisomer, axis not shown; (P)) [Example 10, N-((S)-1-((3P)-3-(4-chloro-1-methyl-3-(methylsulfonamido)-1H-indazol-7-yl)-7-(2-(N-methylmethylsulfonamido)ethoxy)-4-oxo-3,4-dihydropyrido[2,3-d]pyrimidin-2-yl)-2-(3,5-difluorophenyl)ethyl)-2-((3bS,4aR)-3-(difluoromethyl)-5,5-difluoro-3b,4,4a,5-tetrahydro-1H-cyclopropa[3,4]cyclopenta[1,2-c]pyrazol-1-yl)acetamide]: the pEC50 with recombinant NL4-3 virus is 10.39. The CC50 at 4 day in series [1] was > 500 nM.

In the case of `CN(CCCOc1ccc2c(=O)n(-c3ccc(Cl)c4c(NS(C)(=O)=O)nn(C)c34)c([C@H](Cc3cc(F)cc(F)c3)NC(=O)Cn3nc(C(F)F)c4c3C(F)(F)[C@@H]3C[C@H]43)nc2n1)CC(F)(F)F` (atropisomer, axis not shown; (P)) [Example 11, N-((S)-1-((3P)-3-(4-chloro-1-methyl-3-(methylsulfonamido)-1H-indazol-7-yl)-7-(3-(methyl(2,2,2-trifluoroethyl)amino)propoxy)-4-oxo-3,4-dihydropyrido[2,3-d]pyrimidin-2-yl)-2-(3,5-difluorophenyl)ethyl)-2-((3bS,4aR)-3-(difluoromethyl)-5,5-difluoro-3b,4,4a,5-tetrahydro-1H-cyclopropa[3,4]cyclopenta[1,2-c]pyrazol-1-yl)acetamide], the pEC50 with recombinant NL4-3 virus was 10.57. The cytotoxic concentration (CC50) at 4 day in series [1] was > 100 nM.

With `Cn1cc(CCOc2ccc3c(=O)n(-c4ccc(Cl)c5c(NS(C)(=O)=O)nn(C)c45)c([C@H](Cc4cc(F)cc(F)c4)NC(=O)Cn4nc(C(F)F)c5c4C(F)(F)[C@@H]4C[C@H]54)nc3n2)cn1` (atropisomer, axis not shown; (P)) [Example 12, N-((S)-1-((3P,3P)-3-(4-chloro-1-methyl-3-(methylsulfonamido)-1H-indazol-7-yl)-7-(2-(1-methyl-1H-pyrazol-4-yl)ethoxy)-4-oxo-3,4-dihydropyrido[2,3-d]pyrimidin-2-yl)-2-(3,5-difluorophenyl)ethyl)-2-((3bS,4aR)-3-(difluoromethyl)-5,5-difluoro-3b,4,4a,5-tetrahydro-1H-cyclopropa[3,4]cyclopenta[1,2-c]pyrazol-1-yl)acetamide], the pEC50 in the series on recombinant NL4-3 virus is 9.85. The CC50 at 4 day in series [1] was > 100 nM.

In the case of `Cn1nc(COc2ccc3c(=O)n(-c4ccc(Cl)c5c(NS(C)(=O)=O)nn(C)c45)c([C@H](Cc4cc(F)cc(F)c4)NC(=O)Cn4nc(C(F)F)c5c4C(F)(F)[C@@H]4C[C@H]54)nc3n2)cc1C(F)(F)F` (atropisomer, axis not shown; (P)) [Example 13, N-((S)-1-((3P)-3-(4-chloro-1-methyl-3-(methylsulfonamido)-1H-indazol-7-yl)-7-((1-methyl-5-(trifluoromethyl)-1H-pyrazol-3-yl)methoxy)-4-oxo-3,4-dihydropyrido[2,3-d]pyrimidin-2-yl)-2-(3,5-difluorophenyl)ethyl)-2-((3bS,4aR)-3-(difluoromethyl)-5,5-difluoro-3b,4,4a,5-tetrahydro-1H-cyclopropa[3,4]cyclopenta[1,2-c]pyrazol-1-yl)acetamide], the pEC50 with recombinant NL4-3 virus was 10.24. Also, the CC50 at 4 day in series [1] was > 100 nM.

On to `Cn1nccc1CCOc1ccc2c(=O)n(-c3ccc(Cl)c4c(NS(C)(=O)=O)nn(C)c34)c([C@H](Cc3cc(F)cc(F)c3)NC(=O)Cn3nc(C(F)F)c4c3C(F)(F)[C@@H]3C[C@H]43)nc2n1` (atropisomer, axis not shown; (P)) [Example 14, N-((R)-1-((3P,3P)-3-(4-chloro-1-methyl-3-(methylsulfonamido)-1H-indazol-7-yl)-7-(2-(1-methyl-1H-pyrazol-5-yl)ethoxy)-4-oxo-3,4-dihydropyrido[2,3-d]pyrimidin-2-yl)-2-(3,5-difluorophenyl)ethyl)-2-((3bS,4aR)-3-(difluoromethyl)-5,5-difluoro-3b,4,4a,5-tetrahydro-1H-cyclopropa[3,4]cyclopenta[1,2-c]pyrazol-1-yl)acetamide], for which the negative-log EC50 (pEC50) with recombinant NL4-3 virus was 10.21. Further, the CC50 at 4 day in series [1] is > 500 nM.
